Test results taken from ChEMBL document CHEMBL4304838, “Building Bridges in a Series of Estrogen Receptor Degraders: An Application of Metathesis in Medicinal Chemistry” (ACS Med Chem Lett, 2019).
≈ marks a conversion by molar mass, not a printed value.

How the values were obtained:
[1] = molecular target: T1, Estrogen receptor (Homo sapiens, UniProt P03372)
T1 sequence (P03372 whole entry): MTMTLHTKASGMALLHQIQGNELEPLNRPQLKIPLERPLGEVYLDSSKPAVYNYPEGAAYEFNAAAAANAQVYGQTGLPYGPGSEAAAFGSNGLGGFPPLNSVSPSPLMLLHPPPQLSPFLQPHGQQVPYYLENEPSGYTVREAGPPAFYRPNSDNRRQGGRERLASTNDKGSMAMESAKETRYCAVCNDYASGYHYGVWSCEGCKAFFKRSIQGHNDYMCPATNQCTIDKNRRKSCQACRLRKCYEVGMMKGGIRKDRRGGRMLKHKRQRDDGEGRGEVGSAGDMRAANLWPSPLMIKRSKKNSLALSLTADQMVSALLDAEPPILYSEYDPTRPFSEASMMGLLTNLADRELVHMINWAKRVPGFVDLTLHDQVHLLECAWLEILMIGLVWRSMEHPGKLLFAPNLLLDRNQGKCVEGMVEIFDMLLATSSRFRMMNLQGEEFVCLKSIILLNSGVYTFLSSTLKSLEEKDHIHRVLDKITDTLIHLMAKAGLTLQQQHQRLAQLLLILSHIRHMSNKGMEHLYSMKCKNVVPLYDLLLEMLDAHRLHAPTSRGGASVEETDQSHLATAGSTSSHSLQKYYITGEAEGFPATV
Description: Induction of ERalpha degradation in human MCF7 cells assessed as downregulation of ER alpha receptor expression measured after 18 to 22 hrs by immunofluorescence assay

[2] = in vitro; settings: human, hepatocytes
[3] = physchem; settings: buffer, pH 7.4
[4] = molecular target: T1, Estrogen receptor; experiment: biochemical
Description: Displacement of fluorescent labelled fluormone ES2 from human recombinant GST tagged ER alpha LBD ( 282 to 595 residues) expressed in baculovirus infected insect cells measured after 20 mins by TR-FRET Lanthascreen assay

[5] = in vitro; settings: rat, hepatocytes
[6] = human, plasma
Description: Fraction unbound in human plasma by equilibrium dialysis method

[7] = Stability of the compound assessed as parent compound remaining in buffer at pH 7.4 measured after 4 days by 1H-NMR analysis; format: physicochemical; settings: read-out: Stability
[8] = molecular target: Cytochrome P450 2C19 (Homo sapiens, UniProt P33261); experiment: Inhibition of CYP2C19 (unknown origin); format: ADME
[9] = molecular target: Cytochrome P450 3A4 (Homo sapiens, UniProt P08684); experiment: Inhibition of CYP3A4 (unknown origin); format: ADME
[10] = Aqueous solubility of the compound in phosphate buffer at pH 7.4 at 25 degC after 24 hrs; format: physicochemical
[11] = Oral bioavailability in rat at 1 mg/kg; format: ADME, organism-based; settings: in vivo
[12] = molecular target: Cytochrome P450 2D6 (Homo sapiens, UniProt P10635); experiment: Inhibition of CYP2D6 (unknown origin); format: ADME
[13] = Stability of the compound assessed as parent compound remaining in buffer at pH 7.4 measured after 3 days by 1H-NMR analysis; format: physicochemical; settings: read-out: Stability
[14] = Plasma clearance in rat at 0.5 mg/kg, iv or 1 mg/kg, po; format: ADME, organism-based
[15] = Volume of distribution at steady state in rat at 0.5 mg/kg, iv or 1 mg/kg, po; format: ADME, organism-based; settings: in vivo, read-out: Vdss
[16] = Half-life in rat at 1 mg/kg, po; format: ADME, organism-based; settings: in vivo
[17] = molecular target: Cytochrome P450 2C9 (Homo sapiens, UniProt P11712); experiment: Inhibition of CYP2C9 (unknown origin); format: ADME
[18] = molecular target: T2, Cytochrome P450 1A2 (Homo sapiens, UniProt P05177); experiment: Inhibition of CYP1A2 (unknown origin); format: ADME
T2 sequence (P05177 whole entry): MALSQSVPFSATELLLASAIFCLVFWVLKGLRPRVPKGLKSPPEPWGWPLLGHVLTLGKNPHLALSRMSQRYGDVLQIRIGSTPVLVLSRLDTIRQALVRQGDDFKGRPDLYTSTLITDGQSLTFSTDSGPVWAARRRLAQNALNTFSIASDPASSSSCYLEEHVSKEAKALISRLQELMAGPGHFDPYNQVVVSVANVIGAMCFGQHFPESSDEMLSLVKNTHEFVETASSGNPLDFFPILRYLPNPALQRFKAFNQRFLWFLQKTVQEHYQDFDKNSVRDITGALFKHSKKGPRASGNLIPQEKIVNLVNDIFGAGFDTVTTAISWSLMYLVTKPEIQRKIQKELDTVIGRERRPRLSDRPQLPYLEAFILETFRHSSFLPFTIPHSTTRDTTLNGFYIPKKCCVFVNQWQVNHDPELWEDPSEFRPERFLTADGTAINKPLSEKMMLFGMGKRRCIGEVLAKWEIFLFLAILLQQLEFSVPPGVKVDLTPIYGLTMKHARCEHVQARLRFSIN

[19] = Acid dissociation constant, pKa of the compound in potassium chloride at 20 degC by UV absorption analysis; format: physicochemical
[20] = Base dissociation constant, pKa of the compound in potassium chloride at 20 degC by UV absorption analysis; format: physicochemical
[21] = Half-life in rat at 0.5 mg/kg, iv; format: ADME, organism-based; settings: in vivo
[22] = AUC in rat at 1 mg/kg, po; format: ADME, organism-based; settings: in vivo
[23] = Stability of the compound assessed as parent compound remaining in buffer at pH 7.4 measured after 8 days by 1H-NMR analysis; format: physicochemical; settings: read-out: Stability

Sequence of Cytochrome P450 2C9 (P11712 whole entry): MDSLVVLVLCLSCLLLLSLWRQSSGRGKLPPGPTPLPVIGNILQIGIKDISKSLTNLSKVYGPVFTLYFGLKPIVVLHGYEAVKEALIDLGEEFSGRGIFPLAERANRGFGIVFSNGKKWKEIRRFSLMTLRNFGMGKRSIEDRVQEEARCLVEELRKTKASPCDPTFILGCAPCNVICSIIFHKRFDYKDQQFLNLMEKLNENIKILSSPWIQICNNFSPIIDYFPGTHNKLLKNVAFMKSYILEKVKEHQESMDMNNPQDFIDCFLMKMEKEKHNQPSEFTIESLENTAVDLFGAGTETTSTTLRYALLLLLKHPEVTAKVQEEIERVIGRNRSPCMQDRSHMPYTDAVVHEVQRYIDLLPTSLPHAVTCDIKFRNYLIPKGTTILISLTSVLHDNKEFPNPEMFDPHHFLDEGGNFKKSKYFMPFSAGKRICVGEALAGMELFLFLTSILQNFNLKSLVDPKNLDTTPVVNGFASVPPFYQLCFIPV
Sequence of Cytochrome P450 2C19 (P33261 whole entry): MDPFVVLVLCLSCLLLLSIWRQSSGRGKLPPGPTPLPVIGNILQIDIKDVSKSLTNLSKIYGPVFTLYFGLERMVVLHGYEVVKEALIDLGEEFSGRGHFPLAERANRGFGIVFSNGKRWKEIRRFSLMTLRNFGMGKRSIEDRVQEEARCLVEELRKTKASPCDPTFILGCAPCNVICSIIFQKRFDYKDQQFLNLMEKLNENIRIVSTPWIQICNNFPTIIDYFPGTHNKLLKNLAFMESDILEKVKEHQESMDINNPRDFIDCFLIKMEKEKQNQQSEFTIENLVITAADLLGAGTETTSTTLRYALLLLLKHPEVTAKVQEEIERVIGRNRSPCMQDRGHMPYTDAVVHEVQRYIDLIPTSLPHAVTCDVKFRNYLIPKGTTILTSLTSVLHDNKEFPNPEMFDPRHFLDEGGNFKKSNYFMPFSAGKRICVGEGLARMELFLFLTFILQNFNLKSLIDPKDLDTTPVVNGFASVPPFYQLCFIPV
Sequence of Cytochrome P450 3A4 (P08684 whole entry): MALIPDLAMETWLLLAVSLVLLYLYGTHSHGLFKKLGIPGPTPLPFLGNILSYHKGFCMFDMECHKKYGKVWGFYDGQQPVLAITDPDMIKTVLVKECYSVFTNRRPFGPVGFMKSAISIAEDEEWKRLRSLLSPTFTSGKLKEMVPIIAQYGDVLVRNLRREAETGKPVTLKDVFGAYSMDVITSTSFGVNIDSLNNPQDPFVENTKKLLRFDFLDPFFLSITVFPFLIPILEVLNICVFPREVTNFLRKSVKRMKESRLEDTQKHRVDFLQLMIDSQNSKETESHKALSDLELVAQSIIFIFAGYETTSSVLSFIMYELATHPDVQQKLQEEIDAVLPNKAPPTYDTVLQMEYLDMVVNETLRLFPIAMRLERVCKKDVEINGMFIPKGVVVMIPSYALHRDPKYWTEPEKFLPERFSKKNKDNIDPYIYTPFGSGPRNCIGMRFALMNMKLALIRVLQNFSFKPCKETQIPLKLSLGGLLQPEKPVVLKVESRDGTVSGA
Sequence of Cytochrome P450 2D6 (P10635 whole entry): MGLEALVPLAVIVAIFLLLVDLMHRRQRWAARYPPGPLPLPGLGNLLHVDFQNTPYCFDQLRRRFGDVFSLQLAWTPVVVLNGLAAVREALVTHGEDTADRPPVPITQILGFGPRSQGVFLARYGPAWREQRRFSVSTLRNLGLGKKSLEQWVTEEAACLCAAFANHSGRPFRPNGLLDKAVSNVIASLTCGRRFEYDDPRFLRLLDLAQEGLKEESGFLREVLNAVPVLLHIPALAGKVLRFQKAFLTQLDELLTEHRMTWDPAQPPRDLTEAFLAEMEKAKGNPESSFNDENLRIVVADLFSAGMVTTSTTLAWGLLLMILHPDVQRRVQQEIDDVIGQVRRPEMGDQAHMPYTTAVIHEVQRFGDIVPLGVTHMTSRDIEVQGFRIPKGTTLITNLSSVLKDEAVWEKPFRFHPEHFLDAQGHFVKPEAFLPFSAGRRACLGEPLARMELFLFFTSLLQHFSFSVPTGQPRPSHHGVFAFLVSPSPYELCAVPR

SMILES | IC50 [1] | hepatocyte CLint [2] | logD [3] | IC50 [4] | hepatocyte CLint [5] | Fu [6] | remaining at 192 h [23] | further results
C[C@@H]1Cc2c([nH]c3ccccc23)[C@@](C)(c2c(F)cc(/C=C/C(=O)O)cc2F)N1CC(C)(C)F | 1.26 nM | 13 µL/min/1e6 cells | 2.7 | 0.398 nM | 9 µL/min/1e6 cells | 0.28% | – | remaining at 96 h [7]: 58%
CC(C)(F)CN1[C@@H]2CCC[C@@]1(c1c(F)cc(/C=C/C(=O)O)cc1F)c1[nH]c3ccccc3c1C2 | 15.8 nM | 8 µL/min/1e6 cells | 2.9 | 0.794 nM | 26 µL/min/1e6 cells | 0.45% | – | IC50 [8]: > 30000 nM; IC50 [9]: > 30000 nM; solubility at 24 h [10]: 734 µM (≈ 344 µg/mL); bioavailability [11]: 100%; IC50 [12]: > 30000 nM; remaining at 72 h [13]: 100%; clearance [14]: 10 mL/min/kg; Vd [15]: 1.6 L/kg; half-life [16]: 3.1 h; IC50 [17]: > 30000 nM; IC50 [18]: > 30000 nM; pKa [19]: 3.8; pKa [20]: 5.7; half-life [21]: 2.8 h; AUC [22]: 2.7 µM·h
CC(C)(F)CN1[C@@H]2CCC[C@@]1(c1c(F)cc(OCCN3CC(CF)C3)cc1F)c1[nH]c3ccccc3c1C2 | 2 nM | 4 µL/min/1e6 cells | 5.3 | 2 nM | 17 µL/min/1e6 cells | 0.17% | 100% | –
C[C@@H]1Cc2c([nH]c3ccccc23)[C@@H](c2c(F)cc(OCCN3CC(CF)C3)cc2F)N1CC(C)(C)F | – | < 1 µL/min/1e6 cells | > 4.4 | – | – | – | 100% | –
CC(C)(F)CN1[C@@H]2C=CC[C@@]1(c1c(F)cc(/C=C/C(=O)O)cc1F)c1[nH]c3ccccc3c1C2 | 1.58 nM | 14 µL/min/1e6 cells | 2.8 | 0.631 nM | 8 µL/min/1e6 cells | 0.3% | 100% | –
C[C@@H]1Cc2c([nH]c3ccccc23)[C@@](C)(c2c(F)cc(OCCN3CC(CF)C3)cc2F)N1CC(C)(C)F | 0.251 nM | – | > 4.4 | 1 nM | 18 µL/min/1e6 cells | 0.05% | 75% | –
C[C@@H]1Cc2c([nH]c3ccccc23)[C@@H](c2c(F)cc(/C=C/C(=O)O)cc2F)N1CC(C)(C)F [AZD-9496] | – | 31 µL/min/1e6 cells | – | – | 5 µL/min/1e6 cells | 0.26% | – | remaining at 72 h [13]: 92%
